{"source": "patent US20240067655A1", "about": "(NEURON23, INC., priority 2020, published 2024)", "data": [{"molecular_target": "T1, wt human LRRK2, catalytic site (Homo sapiens, UniProt Q5S007)", "T1 construct": "wt human LRRK2, catalytic site; purchased ThermoFisher/USA", "T1 sequence (Q5S007 1879-2138 limits assumed)": "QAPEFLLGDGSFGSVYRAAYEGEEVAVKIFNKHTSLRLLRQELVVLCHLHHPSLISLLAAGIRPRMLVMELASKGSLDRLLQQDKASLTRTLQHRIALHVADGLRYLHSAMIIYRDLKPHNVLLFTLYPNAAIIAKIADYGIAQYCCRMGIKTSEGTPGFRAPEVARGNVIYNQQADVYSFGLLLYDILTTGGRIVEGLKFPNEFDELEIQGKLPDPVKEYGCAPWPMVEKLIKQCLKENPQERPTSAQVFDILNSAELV", "assay": "TR-FRET LanthaScreen Tb Kinase Activity Assay (Example 71)", "assay_type": "biochemical", "conditions": "compounds of Table 4, 38 uM ATP, method names only wt human LRRK2, read-out: IC50, Inhibitory Activity Toward LRRK2 (Wt) and LRRK2 (G2019)", "description": "The compounds in Table 4 were tested for their inhibitory effect on LRRK2 kinases according to the following procedures.\nThe basic protocol for TR-FRET LanthaScreen Tb Kinase Activity Assay inhibitor studies were performed as follows. LanthaScreen Kinase Activity Assays (ThermoFisher/USA) to evaluate inhibitors were performed by addition of 100 nl of test compound in corresponding DMSO dilutions/5 μl of kinase/fluorescein-ERM(LRRKtide) peptide mixture, 5 μl of ATP into 384 well small volume plates. After incubation for 120 minutes at room temperature, the detection reagents containing Tb-anti-pLRRKtide antibody were added to monitor phosphrylation level of peptide. Then, after 60 min minutes incubation at room temperature plates were read in Envision. Data analysis of emission ratios was according to LanthaScreen Tb Kinase Activity Assay protocol.\nKinase and assay components were adjusted to final concentrations according to the kit protocol. For LRRK2: 2 nM wt human LRRK2, catalytic site, catalytic site (ThermoFisher/USA), 400 nM peptide, 38 uM ATP in 1× Kinase Buffer A.\nBasic protocol for TR-FRET LanthaScreen Tb Kinase Activity Assay inhibitor studies involved two steps:\nEnzymatic step: Addition of 100 nl of test compound in corresponding DMSO dilutions, 5 μl of kinase/substrate mixture, 5 μl of ATP into 384 well small volume plates. Incubation for 120 minutes at room temperature.\nDetection step: Addition of 10 μl EDTA & antibody, read plate after 60 minutes. Data analysis of emission ratios according to KinEASE assay protocol.", "units": {"IC50": "nM"}, "values": [{"smiles": "Cc1ccc(F)c(C2=Nc3c(C)n[nH]c3-c3cnn4c3N2CCC4)c1F", "note": "[Compound 396, 9-(2,6-difluoro-3-methylphenyl)-1-methyl-3,6,7,8-tetrahydro-2,3,5,5a,8a,10-hexaazabenzo[cd]cyclopenta[h]azulene]", "IC50": "< 10"}, {"smiles": "Cc1n[nH]c2c1N=C(c1c(F)ccc(Br)c1F)N1CCn3ncc-2c31", "note": "[Compound 391, 3-(3-bromo-2,6-difluorophenyl)-5-methyl-2,7-dihydro-1H-2a,4,6,7,9,9a-hexaazadicyclopenta[cd,f]azulene]", "IC50": "< 10"}, {"smiles": "Fc1cccc(F)c1C1=Nc2cn[nH]c2-c2cnn3c2N1CC1(CC1)C3", "note": "[Compound 377, 9-(2,6-difluorophenyl)-6,8-dihydro-3H-spiro[2,3,5,5a,8a,10-hexaazabenzo[cd]cyclopenta[h]azulene-7,1′-cyclopropane]]", "IC50": "100 to 1000"}, {"smiles": "Cc1n[nH]c2c1N=C(c1c(F)cc(OC(F)F)cc1F)N1CCn3ncc-2c31", "note": "[Compound 398]", "IC50": "< 10"}, {"smiles": "CC1CCn2ncc3c2N1C(c1c(F)cccc1F)=Nc1cn[nH]c1-3", "note": "(stereo not shown) [Compound 351, 9-(2,6-difluorophenyl)-8-methyl-3,6,7,8-tetrahydro-2,3,5,5a,8a,10-hexaazabenzo[cd]cyclopenta[h]azulene]", "IC50": "10 to 100"}, {"smiles": "Fc1ccc(Cl)c(F)c1C1=Nc2cn[nH]c2-c2cnn3c2N1CCC3", "note": "[Compound 368, 8-(3-chloro-2,6-difluoro-phenyl)-3,4,7,9,13,14-hexazatetracyclo[7.6.1.02,6.013,16]hexadeca-1(16),2(6),4,7,14-pentaene]", "IC50": "< 10"}, {"smiles": "Cc1nn2c3c1-c1[nH]ncc1N=C(c1c(F)cccc1F)N3CCC2", "note": "[Compound 366, 9-(2,6-difluorophenyl)-4-methyl-3,6,7,8-tetrahydro-2,3,5,5a,8a,10-hexaazabenzo[cd]cyclopenta[h]azulene]", "IC50": "100 to 1000"}, {"smiles": "CC1CN2C(c3c(F)cccc3F)=Nc3cn[nH]c3-c3cnn(c32)C1", "note": "(stereo not shown) [Compound 348, 9-(2,6-difluorophenyl)-7-methyl-2,6,7,8-tetrahydro-2,3,5,5a,8a,10-hexaazabenzo[cd]cyclopenta[h]azulene]", "IC50": "< 10"}, {"smiles": "Clc1cccc(Cl)c1C1=Nc2cn[nH]c2-c2cnn3c2N1CCC3", "note": "[Compound 342, 9-(2,6-dichlorophenyl)-3,6,7,8-tetrahydro-2,3,5,5a,8a,10-hexaazabenzo[cd]cyclopenta[h]azulene]", "IC50": "10 to 100"}, {"smiles": "Fc1ccccc1C1=Nc2cn[nH]c2-c2cnn3c2N1CCC3", "note": "[Compound 362, 9-(2-fluorophenyl)-3,6,7,8-tetrahydro-2,3,5,5a,8a,10-hexaazabenzo[cd]cyclopenta[h]azulene]", "IC50": "10 to 100"}, {"smiles": "Fc1cc(F)c(C2=Nc3cn[nH]c3-c3cnn4c3N2CC4)c(F)c1", "note": "[Compound 387, 3-(2,4,6-trifluorophenyl)-2,7-dihydro-1H-2a,4,6,7,9,9a-hexaazadicyclopenta[cd,f]azulene]", "IC50": "< 10"}, {"smiles": "Fc1cccc(Cl)c1C1=Nc2cn[nH]c2-c2cnn3c2N1CCC3", "note": "[Compound 341, 9-(2-chloro-6-fluorophenyl)-3,6,7,8-tetrahydro-2,3,5,5a,8a,10-hexaazabenzo[cd]cyclopenta[h]azulene]", "IC50": "< 10"}, {"smiles": "Fc1cccc(C(F)(F)F)c1C1=Nc2cn[nH]c2-c2cnn3c2N1CCC3", "note": "[Compound 380, 8-[2-fluoro-6-(trifluoromethyl)phenyl]-3,4,7,9,13,14-hexazatetracyclo[7.6.1.02,6.013,16]hexadeca-1(16),2(6),4,7,14-pentaene]", "IC50": "10 to 100"}, {"smiles": "Fc1ccc(Br)c(F)c1C1=Nc2cn[nH]c2-c2cnn3c2N1CCC3", "note": "[Compound 353, 9-(3-bromo-2,6-difluorophenyl)-3,6,7,8-tetrahydro-2,3,5,5a,8a,10-hexaazabenzo[cd]cyclopenta[h]azulene]", "IC50": "< 10"}, {"smiles": "Fc1ccc(F)c(C2=Nc3cn[nH]c3-c3cnn4c3N2CCC4)c1F", "note": "[Compound 367, 8-(2,3,6-trifluorophenyl)-3,4,7,9,13,14-hexazatetracyclo[7.6.1.02,6.013,16]hexadeca-1(16),2(6),4,7,14-pentaene]", "IC50": "10 to 100"}, {"smiles": "Cc1cccc(F)c1C1=Nc2cn[nH]c2-c2cnn3c2N1CCC3", "note": "[Compound 340, 9-(2-fluoro-6-methylphenyl)-3,6,7,8-tetrahydro-2,3,5,5a,8a,10 hexaazabenzo[cd]cyclopenta[h]azulene]", "IC50": "< 10"}, {"smiles": "Fc1cccc(Br)c1C1=Nc2cn[nH]c2-c2cnn3c2N1CC3", "note": "[Compound 393, 3-(2-bromo-6-fluorophenyl)-2,7-dihydro-1H-2a,4,6,7,9,9a-hexaazadicyclopenta[cd,f]azulene]", "IC50": "10 to 100"}, {"smiles": "N#Cc1cc(F)c(C2=Nc3cn[nH]c3-c3cnn4c3N2CCC4)c(F)c1", "note": "[Compound 358]", "IC50": "10 to 100"}, {"smiles": "Cc1n[nH]c2c1N=C(c1c(F)cccc1F)c1c[nH]c3cc(Cl)cc-2c13", "note": "[Compound 400, 9-chloro-3-(2,6-difluorophenyl)-5-methyl-1,7-dihydropyrazolo[3′,4′:6,7]azepino[3,4,5-cd]indole]", "IC50": "< 10"}, {"smiles": "Cc1n[nH]c2c1N=C(c1c(F)ccc(C#N)c1F)N1CCCn3ncc-2c31", "note": "[Compound 397, 2,4-difluoro-3-(1-methyl-3,6,7,8-tetrahydro-2,3,5,5a,8a,10-hexaazabenzo[cd]cyclopenta[h]azulen-9-yl)benzonitrile]", "IC50": "< 10"}, {"smiles": "COc1cc(F)c(C2=Nc3cn[nH]c3-c3cnn4c3N2CCC4)c(F)c1", "note": "[Compound 360, 8-(2,6-difluoro-4-methoxy-phenyl)-3,4,7,9,13,14-hexazatetracyclo[7.6.1.02,6.013,16]hexadeca-1(16),2(6),4,7,14-pentaene]", "IC50": "10 to 100"}, {"smiles": "Fc1cccc(F)c1C1=Nc2c(Cl)n[nH]c2-c2cnn3c2N1CCC3", "note": "[Compound 371, 5-chloro-8-(2,6-difluorophenyl)-3,4,7,9,13,14-hexazatetracyclo[7.6.1.02,6.013,16]hexadeca-1(16),2(6),4,7,14-pentaene]", "IC50": "< 10"}, {"smiles": "C[C@H]1CCN2C(c3c(F)cccc3F)=Nc3cn[nH]c3-c3cnn1c32", "note": "(single isomer, unassigned) [Compound 347]", "IC50": "< 10"}, {"smiles": "Fc1ccc(Br)c(F)c1C1=Nc2cn[nH]c2-c2cnn3c2N1CC3", "note": "[Compound 389, 3-(3-bromo-2,6-difluorophenyl)-2,7-dihydro-1H-2a,4,6,7,9,9a-hexaazadicyclopenta[cd,f]azulene]", "IC50": "< 10"}, {"smiles": "c1ccc(C2=Nc3cn[nH]c3-c3cnn4c3N2CCC4)cc1", "note": "[Compound 361, 8-phenyl-3,4,7,9,13,14-hexazatetracyclo[7.6.1.02,6.013,16]hexadeca-1(16),2(6),4,7,14-pentaene]", "IC50": "10 to 100"}, {"smiles": "Fc1cccc(F)c1C1=Nc2cn[nH]c2-n2ncc3c2N1CCC3", "note": "[Compound 369, 9-(2,6-difluorophenyl)-3,6,7,8-tetrahydro-2,3,3b,4,8a,10-hexaazabenzo[cd]cyclopenta[h]azulene]", "IC50": "100 to 1000"}, {"smiles": "Fc1cc(Cl)cc(F)c1C1Nc2cn[nH]c2-c2cnn3c2N1CCC3", "note": "(stereo not shown) [Compound 402, 9-(4-chloro-2,6-difluorophenyl)-3,6,7,8,9,10-hexahydro-2,3,5,5a,8a,10-hexaazabenzo[cd]cyclopenta[h]azulene]", "IC50": "100 to 1000"}, {"smiles": "Fc1cccc(F)c1C1=Nc2cn[nH]c2-c2cc(C(F)(F)F)cc3[nH]cc1c23", "note": "[Compound 401, 3-(2,6-difluorophenyl)-9-(trifluoromethyl)-1,7-dihydropyrazolo[3′,4′:6,7]azepino[3,4,5-cd]indole]", "IC50": "< 10"}, {"smiles": "Cc1cccc(C)c1C1=Nc2cn[nH]c2-c2cnn3c2N1CCC3", "note": "[Compound 379, 8-(2,6-dimethylphenyl)-3,4,7,9,13,14-hexazatetracyclo[7.6.1.02,6.013,16]hexadeca-1(16),2(6),4,7,14-pentaene]", "IC50": "100 to 1000"}, {"smiles": "Fc1cncc(F)c1C1=Nc2c(Cl)n[nH]c2-c2cnn3c2N1CCC3", "note": "[Compound 386, 1-chloro-9-(3,5-difluoropyridin-4-yl)-3,6,7,8-tetrahydro-2,3,5,5a,8a,10-hexaazabenzo[cd]cyclopenta[h]azulene]", "IC50": "10 to 100"}, {"smiles": "Fc1ccccc1C1=Nc2cn[nH]c2-c2cnn3c2N1CCCC3", "note": "[Compound 363, 10-(2-fluorophenyl)-6,7,8,9-tetrahydro-3H-2,3,5,5a,9a,11-hexaazadicyclopenta[b,kl]heptalene]", "IC50": "100 to 1000"}, {"smiles": "OCc1ccc(F)c(C2=Nc3cn[nH]c3-c3cc(C(F)(F)F)cc4[nH]cc2c34)c1F", "note": "[Compound 407, (2,4-difluoro-3-(9-(trifluoromethyl)-1,7-dihydropyrazolo[3′,4′:6,7]azepino[3,4,5-cd]indol-3-yl)phenyl)methanol]", "IC50": "< 10"}, {"smiles": "Fc1cc(OC(F)F)cc(F)c1C1=Nc2cn[nH]c2-c2cc(C(F)(F)F)cc3[nH]cc1c23", "note": "[Compound 384, 3-(4-(difluoromethoxy)-2,6-difluorophenyl)-9-(trifluoromethyl)-1,7-dihydropyrazolo[3′,4′:6,7]azepino[3,4,5-cd]indole]", "IC50": "10 to 100"}, {"smiles": "Cc1ccc(F)c(C2=Nc3cn[nH]c3-c3cnn4c3N2CCC4)c1F", "note": "[Compound 354, 9-(2,6-difluoro-3-methylphenyl)-3,6,7,8-tetrahydro-2,3,5,5a,8a,10 Hexaazabenzo[cd]cyclopenta[h]azulene]", "IC50": "< 10"}]}]}
